According to US11999699B2, “Substituted pyrazole amides” (GRUENENTHAL GMBH, priority 2021, dated 2024):

Molecular target: T1, human NaV1.8 (Homo sapiens, UniProt Q9Y5Y9)
T1 construct: The following NaV1.8 recombinant cell line was used for recordings: HEK-NaV1.8 (NM 006514.1); expressed in transfected cells; host or cells: HEK (recombinant cell line HEK-NaV1.8)
Assay: Electrophysiology: automated whole-cell voltage-clamp (patch clamp, Qube384) recordings of sodium currents in HEK-NaV1.8 cells
Format: cell-based
Details: potency data either taken from inactivated or resting state, read-out: Potency category (human NaV1.8 IC50)
Protocol: Electrophysiology: Voltage-Clamp Recordings
The following NaV1.8 recombinant cell line was used for recordings: HEK-NaV1.8 (NM 006514.1) with in (NM 018400.3).
Sodium currents were measured using the patch clamp technique in the whole-cell configuration using the Qube384 (Sophion A/S, Copenhagen, Denmark) automated voltage clamp platform. “Multi hole” plates were used for the cell line expressing NaV1.8 while “single hole” plates were used for the recombinant cell lines expressing the other subtypes. Appropriate filters (for minimum seal resistance and minimum current size) and series resistance compensation (for high quality sodium channel recordings) were applied. Data was collected at ambient room temperature.
The recording extracellular solution contained (in mM): NaCl 145 mM, KCl 4 mM, CaCl2 2 mM, MgCl2 1 mM, HEPES 10 mM, Glucose 10 mM, pH 7.4 (NaOH). The intracellular recording solution contained (in mM): CsF 120 mM, CsCl 20 mM, NaCl 10 mM, EGTA 10 mM, HEPES 10 mM, pH 7.2 (CsOH). Currents were recorded at 25 kHz sampling frequency and filtered at 5 kHz. Series resistance compensation was applied at 65%.
Vehicle (VEH) is the control condition where cells are exposed to 0.3% DMSO without compound. All runs include VEH controls being exposed to the same voltage protocols to assess non-compound related phenomena such as run down and then used to isolate compound dependent effects on currents.
To check for state-dependence inhibition, the following voltage-sequence was applied every 20 seconds:
From a resting membrane potential of −120 mV, the first test pulse (P1; 20 ms to −10 mV) was applied to check for channels in the Resting State followed by a brief recovery (20 ms to −120 mV), then holding the membrane voltage to V112 (4 seconds at voltage to obtain half the channel at Rest and half Inactivated) with a subsequent second test pulse (P2; 20 ms to −10 mV) to check for channels in the Inactivated State, followed by another brief recovery (20 ms to −120 mV) and a final third test pulse (P3; 20 ms to −10 mV) to check for recovered channels.
To check for frequency-dependent inhibition, a 10 Hz protocol and a 20 Hz protocol were applied; namely,
From a resting membrane potential of −120 mV, 40-pulses (10 ms to −10 mV) was applied at 10 Hz (at 100 ms between pulses) and then at 20 Hz (at 50 ms between pulses).
Each parameter was recorded (P1, P2, P3, P40 from 10 Hz and P40 from 20 Hz) during a control period (lasting 5 minutes) when establishing the baseline and during compound period (lasting ˜12 minutes) when test compound (or vehicle) was applied. For each parameter, the value at the end of the compound period was normalized to the vehicle baseline; as follows
To adjust for any variance in the Na^+ current signal during the compound period (owing to cumulative inactivation independent of compound or shifts in biophysics over time), a dedicated segment of the recording wells in each 384 plate were dedicated to having only vehicle exposure. These vehicle-only recordings were used to correct for any apparent “run-up” or “run-down” in the experiment.
The adjusted inhibition was calculated as follows: […]
Percent inhibition was determined and IC50 values were calculated using a 4 parameter logistic model within XLFit Software (IDBS, Boston MA):
[formula] where A and B are the maximal and minimum inhibition respectively, C is the IC50 concentration and D is the (Hill) slope.
The potency data was either taken from inactivated or resting state.

T1 sequence (Q9Y5Y9 whole entry): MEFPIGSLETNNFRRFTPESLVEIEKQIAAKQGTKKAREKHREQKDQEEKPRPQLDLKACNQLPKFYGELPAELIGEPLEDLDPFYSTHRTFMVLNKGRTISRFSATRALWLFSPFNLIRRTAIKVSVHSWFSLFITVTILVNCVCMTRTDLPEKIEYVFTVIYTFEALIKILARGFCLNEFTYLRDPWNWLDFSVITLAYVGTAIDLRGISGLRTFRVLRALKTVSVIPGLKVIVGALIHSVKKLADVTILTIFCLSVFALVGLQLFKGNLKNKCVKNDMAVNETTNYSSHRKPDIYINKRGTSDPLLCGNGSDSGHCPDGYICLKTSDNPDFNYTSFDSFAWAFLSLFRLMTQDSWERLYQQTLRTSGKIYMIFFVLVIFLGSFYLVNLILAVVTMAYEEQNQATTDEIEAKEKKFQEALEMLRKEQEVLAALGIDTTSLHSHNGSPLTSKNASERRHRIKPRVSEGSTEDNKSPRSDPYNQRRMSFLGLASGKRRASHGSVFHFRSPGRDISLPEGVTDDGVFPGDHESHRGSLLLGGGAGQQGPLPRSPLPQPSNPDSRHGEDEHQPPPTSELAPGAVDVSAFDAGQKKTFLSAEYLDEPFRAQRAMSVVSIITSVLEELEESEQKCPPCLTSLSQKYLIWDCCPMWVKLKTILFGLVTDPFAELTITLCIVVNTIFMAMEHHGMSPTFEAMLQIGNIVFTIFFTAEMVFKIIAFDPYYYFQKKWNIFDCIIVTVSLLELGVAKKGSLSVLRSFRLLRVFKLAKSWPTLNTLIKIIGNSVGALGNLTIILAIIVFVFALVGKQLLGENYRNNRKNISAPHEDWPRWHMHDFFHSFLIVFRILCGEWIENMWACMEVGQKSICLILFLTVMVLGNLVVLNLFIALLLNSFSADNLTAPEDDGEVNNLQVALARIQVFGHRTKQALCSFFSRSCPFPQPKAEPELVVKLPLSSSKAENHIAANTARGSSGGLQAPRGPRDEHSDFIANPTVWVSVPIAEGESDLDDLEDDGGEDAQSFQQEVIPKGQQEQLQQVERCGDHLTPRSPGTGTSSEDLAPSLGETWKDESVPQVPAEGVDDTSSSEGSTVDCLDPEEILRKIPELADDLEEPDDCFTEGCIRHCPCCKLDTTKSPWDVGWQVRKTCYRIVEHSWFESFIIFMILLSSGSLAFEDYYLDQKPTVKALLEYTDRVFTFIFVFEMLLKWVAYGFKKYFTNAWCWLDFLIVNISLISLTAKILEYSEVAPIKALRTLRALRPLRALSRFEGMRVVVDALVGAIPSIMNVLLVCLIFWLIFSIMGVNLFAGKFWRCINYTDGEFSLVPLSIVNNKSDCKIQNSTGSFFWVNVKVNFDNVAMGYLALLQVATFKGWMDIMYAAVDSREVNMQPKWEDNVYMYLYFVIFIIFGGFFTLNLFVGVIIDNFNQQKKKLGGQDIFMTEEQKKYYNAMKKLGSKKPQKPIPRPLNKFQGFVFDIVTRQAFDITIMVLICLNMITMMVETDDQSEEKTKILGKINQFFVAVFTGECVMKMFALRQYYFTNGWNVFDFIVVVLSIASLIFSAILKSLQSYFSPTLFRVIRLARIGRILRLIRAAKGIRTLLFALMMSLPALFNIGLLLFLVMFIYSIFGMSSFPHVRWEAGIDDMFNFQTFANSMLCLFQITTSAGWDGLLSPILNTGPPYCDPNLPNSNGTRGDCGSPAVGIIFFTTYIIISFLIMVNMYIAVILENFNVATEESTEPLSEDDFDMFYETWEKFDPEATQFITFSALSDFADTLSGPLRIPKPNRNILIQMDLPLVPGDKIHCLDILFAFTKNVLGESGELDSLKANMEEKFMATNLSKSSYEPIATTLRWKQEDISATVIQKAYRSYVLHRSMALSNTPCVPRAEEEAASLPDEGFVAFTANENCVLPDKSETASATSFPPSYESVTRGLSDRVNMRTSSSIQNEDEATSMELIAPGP
T1 sequence (Q9NY72 23-215 partner): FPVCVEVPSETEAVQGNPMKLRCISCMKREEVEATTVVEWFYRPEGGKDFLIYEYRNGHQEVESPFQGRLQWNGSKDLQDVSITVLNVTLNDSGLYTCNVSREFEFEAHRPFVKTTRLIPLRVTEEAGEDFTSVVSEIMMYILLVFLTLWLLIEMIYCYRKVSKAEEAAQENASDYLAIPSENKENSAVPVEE

IC50 [nM]	Structure (SMILES)
100 to 1000	CS(=O)(=O)c1cc(NC(=O)c2c(C(F)(F)F)c(C3CC3)nn2CC2CCCO2)ccn1 (centres unmarked) [SC-263, 3-cyclopropyl-N-(2-(methylsulfonyl)pyridin-4-yl)-1-((tetrahydrofuran-2-yl)methyl)-4-(trifluoromethyl)-1H-pyrazole-5-carboxamide]
≤ 100	Cc1c(C(C)(F)F)nn(CC2(C(F)F)CC(F)(F)C2)c1C(=O)Nc1ccnc(C(N)=O)c1 [SC-311, 4-(3-(1,1-difluoroethyl)-1-((1-(difluoromethyl)-3,3-difluorocyclobutyl)methyl)-4-methyl-1H-pyrazole-5-carboxamido)picolinamide]
≤ 100	NC(=O)c1cc(NC(=O)c2c(C(F)(F)F)c(OC(F)F)nn2C[C@H]2CCC(F)(F)C2)ccn1 [SC-158S]
≤ 100	NS(=O)(=O)c1cccc(NC(=O)c2c(C(F)(F)F)cnn2CC2CCCCC2)c1 [SC-33, 2-(cyclohexylmethyl)-N-(3-sulfamoylphenyl)-4-(trifluoromethyl)pyrazole-3-carboxamide]
100 to 1000	Cc1nn(CC2CCC(F)(F)CC2)c(C(=O)Nc2cnnc(S(C)(=O)=O)c2)c1C(F)(F)F [SC-280, 1-((4,4-difluorocyclohexyl)methyl)-3-methyl-N-(6-(methylsulfonyl)pyridazin-4-yl)-4-(trifluoromethyl)-1H-pyrazole-5-carboxamide]
1000 to 10000	Cc1c(OC(C)(F)F)nn(CC2CC(F)(F)C2)c1C(=O)Nc1ccnc(C(N)=O)c1 [SC-309, 4-(1-((3,3-difluorocyclobutyl)methyl)-3-(1,1-difluoroethoxy)-4-methyl-1H-pyrazole-5-carboxamido)picolinamide]
≤ 100	NC(=O)c1cc(NC(=O)c2c(C(F)(F)F)c(C3CC3)nn2C[C@@H]2CC[C@H](C(F)(F)F)O2)ccn1 (single isomer, unassigned) [SC-284a]
≤ 100	Cc1nn(CC2CCCCC2)c(C(=O)Nc2ccc(F)c(S(N)(=O)=O)c2)c1C(F)(F)F [SC-238, 1-(cyclohexyimethyl)-N-(4-fluoro-3-sulfamoylphenyl)-3-methyl-4-(trifluoromethyl)-1H-pyrazole-5-carboxamide]
≤ 100	NC(=O)c1cc(NC(=O)c2c(C(F)(F)F)c(C3CC3)nn2CC2CC2)ccn1 [SC-266, 4-(3-cyclopropyl-1-(cyclopropylmethyl)-4-(trifluoromethyl)-1H-pyrazole-5-carboxamido)picolinamide]
1000 to 10000	CS(=O)(=O)c1cc(F)cc(NC(=O)c2c(C(F)(F)F)cnn2CC2CCC(F)(F)CC2)c1 [SC-42, 2-[(4,4-difluorocyclohexyl)methyl]-N-(3-fluoro-5-methylsulfonylphenyl)-4-(trifluoromethyl)pyrazole-3-carboxamide]
100 to 1000	COc1c(C(F)(F)F)nn(CC2CCC(F)(F)C2)c1C(=O)Nc1ccnc(C(N)=O)c1 (centres unmarked) [SC-269, 4-(1-((3,3-difluorocyclopentyl)methyl)-4-methoxy-3-(trifluoromethyl)-lH-pyrazole-5-carboxamido)picolinamide]
1000 to 10000	CS(=O)(=O)c1cc(NC(=O)c2c(C(F)(F)F)cnn2CC2CCC(F)(F)CC2)ccn1 [SC-14, 2-[(4,4-difluorocyclohexyl)methyl]-N-(2-methylsulfonylpyridin-4-yl)-4-(trifluoromethyl)pyrazole-3-carboxamide]
≤ 100	NC(=O)c1cc(NC(=O)c2c(C(F)(F)F)c(C3CC3)nn2CC2CCCCO2)ccn1 (single isomer, unassigned) [SC-258b]
100 to 1000	Cc1c(OC(F)F)nn(CC2CC(F)(F)C2)c1C(=O)Nc1ccnc(S(C)(=O)=O)c1 [SC-323, 1-((3,3-difluorocyclobutyl)methyl)-3-(difluoromethoxy)-4-methyl-N-(2-(methylsulfonyl)pyridin-4-yl)-1H-pyrazole-5-carboxamide]
≤ 100	Cc1c(C(C)(F)F)nn(C[C@@H]2CC[C@H]2C(F)(F)F)c1C(=O)Nc1ccnc(C(N)=O)c1 (single isomer, unassigned) [SC-315a]
≤ 100	CCc1nn(CC2CCC(F)(F)C2)c(C(=O)Nc2ccnc(C(N)=O)c2)c1C(F)(F)F (centres unmarked) [SC-218, 4-(1-((3,3-difluorocyclopentyl)methyl)-3-ethyl-4-(trifluoromethyl)-1H-pyrazole-5-carboxamido)picolinamide]
≤ 100	COc1nn(CC2CCC(F)(F)C2)c(C(=O)Nc2ccnc(C(N)=O)c2)c1C(F)(F)F (centres unmarked) [SC-273, 4-(1-((3,3-difluorocyclopentyl)methyl)-3-methoxy-4-(trifluoromethyl)-lH-pyrazole-5-carboxamido)picolinamide]
1000 to 10000	Cc1nn(CC2CCCCC2)c(C(=O)Nc2cc[nH]c(=O)c2)c1C [SC-07, 1-(cyclohexylmethyl)-3,4-dimethyl-N-(2-oxo-1,2-dihydropyridin-4-yl)-1H-pyrazole-5-carboxamide]
≤ 100	Cc1c(C(C)(F)F)nn(C[C@@H]2CC[C@H]2C(F)(F)F)c1C(=O)Nc1ccnc(C(N)=O)c1 (single isomer, unassigned) [SC-315b]
≤ 100	NS(=O)(=O)c1cccc(NC(=O)c2c(C(F)(F)F)cnn2CC2CCCC2(F)F)c1 (centres unmarked) [SC-235, 1-((2,2-difluorocyclopentyl)methyl)-N-(3-sulfamoylphenyl)-4-(trifluoromethyl)-1H-pyrazole-5-carboxamide]
1000 to 10000	COC1(Cn2nc(C(C)(F)F)c(C)c2C(=O)Nc2ccnc(S(N)(=O)=O)c2)CC1 [SC-308, 3-(1,1-difluoroethyl)-1-((1-methoxycyclopropyl)methyl)-4-methyl-N-(2-sulfamoylpyridin-4-yl)-1H-pyrazole-5-carboxamide]
≤ 100	Cc1c(C(C)(F)F)nn(CC2CC(F)(F)C2)c1C(=O)Nc1ccnc(S(N)(=O)=O)c1 [SC-215, 1-((3,3-difluorocyclobutyl)methyl)-3-(1,1-difluoroethyl)-4-methyl-N-(2-sulfamoylpyridin-4-yl)-lH-pyrazole-5-carboxamide]
100 to 1000	C[C@@H]1CC[C@H](Cn2nc(C3CC3)c(C(F)(F)F)c2C(=O)Nc2ccnc(C(N)=O)c2)O1 (single isomer, unassigned) [SC-286b]
1000 to 10000	CS(=O)(=O)c1cccc(NC(=O)c2c(F)cnn2CC2CCCCC2)c1 [SC-08, 2-(cyclohexylmethyl)-4-fluoro-N-(3-methylsulfonylphenyl)pyrazole-3-carboxamide]
100 to 1000	Cc1c(C(C)(F)F)nn(CC2(C)CCCCO2)c1C(=O)Nc1ccnc(S(N)(=O)=O)c1 (single isomer, unassigned) [SC-312a]
≤ 100	NC(=O)c1cc(NC(=O)c2c(C(F)(F)F)c(C3CC3)nn2CC2CC(C(F)F)C2)ccn1 (single isomer, unassigned) [SC-221b, 4-(3-cyclopropyl-1-((3-(difluoromethyl)cyclobutyl)methyl)-4-(trifluoromethyl)-1H-pyrazole-5-carboxamido)picolinamide]
≤ 100	CC(C)Oc1nn(CC2CCC(F)(F)C2)c(C(=O)Nc2ccnc(C(N)=O)c2)c1C(F)(F)F (centres unmarked) [SC-155, 4-(1-((3,3-difluorocyclopentyl)methyl)-3-isopropoxy-4-(trifluoromethyl)-1H-pyrazole-5-carboxamido)picolinamide]
100 to 1000	Cc1cc(NC(=O)c2c(C(F)(F)F)c(C)nn2CC2CCC(F)(F)CC2)cc(C(N)=O)n1 [SC-267, 4-(1-((4,4-difluorocyclohexyl)methyl)-3-methyl-4-(trifluoromethyl)-1H-pyrazole-5-carboxamido)-6-methylpicolinamide]
≤ 100	Cc1c(C(C)(F)F)nn(CC2CCC(F)(F)C2)c1C(=O)Nc1ccnc(C(N)=O)c1 (centres unmarked) [SC-167, 4-(1-((3,3-difluorocyclopentyl)methyl)-3-(1,1-difluoroethyl)-4-methyl-1H-pyrazole-5-carboxamido)picolinamide]
